This is an account of results in ChEMBL document CHEMBL1201862, “PubChem BioAssay data set” (2004).

Some test systems named below: NCI-H522; UACC-62; SNB-19; DU-145; OVCAR-8; HT-29; RXF 393; SK-OV-3; Hs-578T; KM12; UO-31; SK-MEL-5; SF-268; IGROV-1; SR; SN12C; OVCAR-4; A498; BT-549; SK-MEL-2.
What all share (test): DTP human tumour cell line panel, 48 h

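Five concentrations, 48 hours, 96-well plates. At the GI50, growth is halved.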 Activity calls are given as the source filed them. No stated cut-off is given here; in the data, active = GI50 up to about 1.1 µM and inactive = higher.

The term GI50 denotes the concentration that inhibits growth by half. Take `Nc1cccc2cc(Cl)cnc12`: the GI50 in the test on NCI-H522 was > 100 µM (inactive); in the test on UACC-62 it was 56.8 µM (inactive); with SNB-19, > 100 µM (inactive); in the test on DU-145, > 100 µM (inactive); in the test on OVCAR-8 it was > 100 µM (inactive); in the test with HT-29 it was > 100 µM (inactive). In addition, the GI50 in the test on RXF 393 was > 100 µM (inactive); with SK-OV-3, > 100 µM (inactive); in the test with Hs-578T it was 36.3 µM (inactive); in the test on KM12, > 100 µM (inactive); in the test on UO-31, 26.7 µM (inactive); in the test on SK-MEL-5, > 100 µM (inactive). The GI50 with SF-268, in the test on IGROV-1, in the test on SR, in the test on SN12C, in the test on OVCAR-4 and in the test with A498 was > 100 µM (inactive) throughout. Also, the GI50 in the test with BT-549 is > 100 µM (inactive).
For the compound `N=C1/C(=C/c2ccco2)C(=O)N=C2SC=NN12`, the GI50 in the test with NCI-H522, with UACC-62, with SNB-19, with DU-145, in the test with OVCAR-8 and in the test on SK-MEL-2 was > 100 µM (inactive) throughout. Besides, the GI50 in the test on HT-29, with RXF 393, in the test on SK-OV-3, in the test on Hs-578T, in the test on KM12 and with UO-31 was > 100 µM (inactive) throughout. Also, the GI50 in the test with SK-MEL-5, in the test on SF-268, in the test on IGROV-1, with SR, in the test on SN12C and in the test on OVCAR-4 was > 100 µM (inactive) in each case. Also, in the test on BT-549, the GI50 was > 100 µM (inactive).
Consider `O=C1C(Cl)=C(Oc2ccc([N+](=O)[O-])cc2)C(=O)c2c(O)ccc(O)c21`, for which the GI50 was 19.2 µM (inactive) in the test on NCI-H522; > 63.7 µM (inactive) in the test on UACC-62; > 100 µM (inactive) in the test with SNB-19; > 100 µM (inactive) in the test on DU-145; > 100 µM (inactive) in the test on OVCAR-8; 33.9 µM (inactive) in the test on HT-29. In addition, the GI50 was 23.1 µM (inactive) in the test with RXF 393; > 100 µM (inactive) with SK-OV-3; > 100 µM (inactive) in the test on Hs-578T; > 100 µM (inactive) in the test with KM12; > 100 µM (inactive) in the test with UO-31; > 84.1 µM (inactive) in the test on SK-MEL-5. For the same compound, the GI50 in the test on SF-268 was > 61.8 µM (inactive); in the test with IGROV-1 it was > 100 µM (inactive); with SR it was 3.78 µM (inactive); in the test with SN12C, 98.4 µM (inactive); with OVCAR-4 it was 51.8 µM (inactive); in the test with A498, > 100 µM (inactive). Moreover, the GI50 with BT-549 is 49.3 µM (inactive).
Regarding `COc1ccc2nc(-c3ccccc3)c(=O)[nH]c2c1`, the GI50 in the test on NCI-H522, in the test on UACC-62, with SNB-19, in the test on DU-145, with OVCAR-8 and with HT-29 was > 100 µM (inactive) each time. Further, the GI50 in the test with RXF 393, with Hs-578T, with SK-MEL-5, in the test on SF-268, in the test on IGROV-1 and in the test with SR was > 100 µM (inactive) each time. Besides, the GI50 in the test on SN12C, in the test with A498 and in the test with BT-549 was > 100 µM (inactive) each time.
For the compound `Cc1cccc(Cn2c3c(c4cc(O)ccc42)C(=O)c2ccccc2C3=O)c1`, the GI50 was 11.1 µM (inactive) in the test with UACC-62; 28 µM (inactive) in the test with SNB-19; > 100 µM (inactive) with DU-145; 5.57 µM (inactive) in the test on OVCAR-8; > 91.2 µM (inactive) in the test with SK-MEL-2; > 58.5 µM (inactive) in the test on HT-29. The GI50 with RXF 393 is 5.6 µM (inactive); in the test on SK-OV-3 it was 3.44 µM (inactive); in the test with Hs-578T, 24.4 µM (inactive); in the test with KM12, 41.2 µM (inactive); in the test with UO-31, > 54.2 µM (inactive); with SK-MEL-5 it was 18.3 µM (inactive). The GI50 in the test on SF-268 was 36.6 µM (inactive); in the test on IGROV-1 it was 5.13 µM (inactive); in the test with SR it was 14.2 µM (inactive); in the test on SN12C it was > 61 µM (inactive); in the test with OVCAR-4 it was 1.88 µM (inactive); in the test on A498, > 90.8 µM (inactive). Further, the GI50 with BT-549 was 24.3 µM (inactive).
For `CC(=O)OCC1OC(SC2=N/C(=C\c3cc4c(=O)c5ccccc5sc4s3)C(=O)N2c2ccccc2)C(OC(C)=O)C(OC(C)=O)C1OC(C)=O` (stereo not drawn), the GI50 in the test with NCI-H522 was > 100 µM (inactive); with UACC-62, > 100 µM (inactive); with SNB-19, 40.4 µM (inactive); in the test on DU-145 it was > 100 µM (inactive); with OVCAR-8, > 100 µM (inactive); with SK-MEL-2, 32 µM (inactive). In addition, the GI50 is > 100 µM (inactive) in the test on HT-29; 81.5 µM (inactive) with RXF 393; > 100 µM (inactive) in the test on Hs-578T; > 100 µM (inactive) in the test on KM12; > 100 µM (inactive) with UO-31; > 100 µM (inactive) with SK-MEL-5. Also, the GI50 with SF-268 is > 100 µM (inactive); in the test with IGROV-1, > 100 µM (inactive); with SR, 42.2 µM (inactive); with SN12C, > 100 µM (inactive); in the test on OVCAR-4, 74.3 µM (inactive); with A498 it was > 100 µM (inactive). Besides, the GI50 in the test on BT-549 was 63.8 µM (inactive).
`C=C(c1ccc2[nH]c(NC(=O)OC)nc2c1)c1cccs1`: the GI50 in the test on NCI-H522 is 0.0813 µM (active); in the test with UACC-62, 0.121 µM (active); with SNB-19, 0.198 µM (active); with DU-145, 0.309 µM (active); with OVCAR-8, 0.299 µM (active); in the test with SK-MEL-2, 2.26 µM (inactive). Also, the GI50 in the test with HT-29 is 0.0568 µM (active); in the test with RXF 393, > 100 µM (inactive); with SK-OV-3, 0.135 µM (active); with Hs-578T, 0.417 µM (active); with UO-31 it was 0.916 µM (active); with SK-MEL-5, 0.0703 µM (active). For the same compound, the GI50 with SF-268 is 2.02 µM (inactive); with IGROV-1, 0.371 µM (active); with SR it was < 0.01 µM (active); in the test on SN12C, 0.839 µM (active); with A498, 0.425 µM (active); in the test on BT-549, 0.679 µM (active).
Turning to `CCc1ccccc1NC(=O)C(C#N)C1=C(Cl)C(=O)c2ccccc2C1=O` (stereo not drawn), the GI50 in the test on NCI-H522 was 13.5 µM (inactive); with UACC-62, 16.8 µM (inactive); in the test with SNB-19, 25.4 µM (inactive); with DU-145, 17.4 µM (inactive); with OVCAR-8 it was 17.9 µM (inactive); in the test with SK-MEL-2 it was 17.3 µM (inactive). In addition, the GI50 with HT-29 is 14.1 µM (inactive); in the test with RXF 393, 20.5 µM (inactive); in the test with SK-OV-3 it was 36.6 µM (inactive); with Hs-578T, 19.3 µM (inactive); in the test with KM12, 13.5 µM (inactive); in the test with UO-31, 13 µM (inactive). Besides, the GI50 was 15.3 µM (inactive) in the test with SK-MEL-5; 21.7 µM (inactive) with SF-268; 12.6 µM (inactive) in the test on IGROV-1; 21.6 µM (inactive) with SR; 13.1 µM (inactive) with SN12C; 13.6 µM (inactive) in the test with OVCAR-4. Besides, the GI50 in the test on BT-549 is 21.9 µM (inactive).
Take `COc1cc2c(cc1OC)C(=O)/C(=C/c1ccccc1)CC2`: the GI50 was 52.6 µM (inactive) in the test on NCI-H522; 27.7 µM (inactive) in the test with SNB-19; 83.2 µM (inactive) in the test on DU-145; 45.5 µM (inactive) in the test on OVCAR-8; 14.1 µM (inactive) in the test with SK-MEL-2; 17.9 µM (inactive) with HT-29. The GI50 in the test on RXF 393 was > 100 µM (inactive); in the test with SK-OV-3, 25.5 µM (inactive); in the test with Hs-578T, > 100 µM (inactive); in the test with KM12, 14.4 µM (inactive); in the test with UO-31, > 100 µM (inactive); in the test with SK-MEL-5 it was 17.1 µM (inactive). Further, the GI50 in the test on SF-268 is 46.7 µM (inactive); in the test with IGROV-1 it was 38.9 µM (inactive); with SR it was 13.5 µM (inactive); in the test on SN12C, 43.7 µM (inactive); with OVCAR-4, 62.4 µM (inactive); with A498 it was 26.1 µM (inactive). The GI50 with BT-549 was 12.5 µM (inactive).
Consider `O=C1/C(=C/c2c(Cl)[nH]c3ccccc23)c2ccccc2N1c1ccccc1`, for which the GI50 in the test with NCI-H522 was 3.05 µM (inactive); with UACC-62 it was 5.65 µM (inactive); in the test on SNB-19 it was 9.84 µM (inactive); in the test on DU-145, 7.43 µM (inactive); in the test on OVCAR-8 it was 4.35 µM (inactive); in the test with SK-MEL-2, 3.36 µM (inactive). For the same compound, the GI50 was 3.53 µM (inactive) in the test with HT-29; 11.9 µM (inactive) with RXF 393; 2 µM (inactive) with SK-OV-3; 3.9 µM (inactive) with Hs-578T; 3.86 µM (inactive) in the test on KM12; 6.46 µM (inactive) in the test with UO-31. The GI50 with SK-MEL-5 is 2.89 µM (inactive); with SF-268, 5.52 µM (inactive); in the test with IGROV-1 it was 4.39 µM (inactive); with SR it was 3.64 µM (inactive); in the test on SN12C, 6.19 µM (inactive); in the test on A498, 10.4 µM (inactive). For the same compound, the GI50 with BT-549 is 3.29 µM (inactive).
For the compound `N#Cc1nc(CCCCCN2C(=O)c3ccccc3C2=O)oc1N`, the GI50 was 4.84 µM (inactive) in the test on NCI-H522; > 100 µM (inactive) in the test with SNB-19; > 100 µM (inactive) in the test on DU-145; > 100 µM (inactive) in the test with OVCAR-8; > 100 µM (inactive) in the test with SK-MEL-2; > 100 µM (inactive) in the test on HT-29. Besides, the GI50 in the test on RXF 393 is > 100 µM (inactive); in the test on SK-OV-3 it was > 100 µM (inactive); with Hs-578T, > 100 µM (inactive); in the test on KM12, > 100 µM (inactive); in the test on UO-31 it was 94.4 µM (inactive); in the test with SK-MEL-5, > 100 µM (inactive). The GI50 is > 100 µM (inactive) in the test with SF-268; > 100 µM (inactive) in the test on IGROV-1; > 100 µM (inactive) with SR; > 100 µM (inactive) with SN12C; > 100 µM (inactive) in the test on OVCAR-4; 25.7 µM (inactive) with BT-549.
